We go through 22 compounds from US20230149420A1, “ANTI-INFLAMMATORY IMMUNOENHANCER” (SCENT SCIENCE INTERNATIONAL INC., priority 2020, published 2023).

Common to all, as to type: in vivo, C57/BL6 mice
Assay [1] deals with monocytes in the peripheral blood. Description: number of monocytes in peripheral blood, Siemens Advia 120 (Examples 6, 7). As to conditions: 200 μl of 1% solution i.p., blood 16 hr later, vs saline. As to the method: About 3-month-old C57/BL6 mice were intraperitoneally injected with 200 μl of saline (control) or 1% solution of respective compounds (dissolved in saline). Blood was collected 16 hr later, and the number of monocytes in the peripheral blood was measured using Siemens Advia 120.
About 3-month-old C57/BL6 mice were intraperitoneally injected with 200 μl of saline (control) or 1% allyl isothiocyanate solution (dissolved in saline). Blood was collected 16 hr later, and the number of monocytes in the peripheral blood was measured using Siemens Advia 120.

Assay [2] has as its system neutrophils in the peripheral blood. Put plainly: number of neutrophils in peripheral blood, Siemens Advia 120 (Examples 4, 5). To be noted: 200 μl of 1% solution i.p., blood 16 hr later, vs saline. The method, then: About 3-month-old C57/BL6 mice were intraperitoneally injected with 200 μl of saline (control) or 1% solution of respective compounds (dissolved in saline). Blood was collected 16 hr later, and the number of neutrophils in the peripheral blood was measured using Siemens Advia 120.

Assay [3] deals with monocytes in the whole blood cells. Put plainly: ratio of monocytes in whole blood cells, Siemens Advia 120 (Examples 10, 11). As to conditions: 200 μl of 1% solution i.p., blood 16 hr later, vs saline. As to the method: About 3-month-old C57/BL6 mice were intraperitoneally injected with 200 μl of saline (control) or 1% solution of respective compounds (dissolved in saline). Blood was collected 16 hr later, and the ratio of monocytes in the whole blood cells was measured using Siemens Advia 120.
About 3-month-old C57/BL6 mice were intraperitoneally injected with 200 μl of saline (control) or 1% allyl isothiocyanate solution (dissolved in saline). Blood was collected 16 hr later, and the ratio of monocytes in the whole blood cells was measured using Siemens Advia 120.

Assay [4] deals with neutrophils in the whole blood cells. Description: ratio of neutrophils in whole blood cells, Siemens Advia 120 (Examples 12, 13). To be noted: 200 μl of 1% solution i.p., blood 16 hr later, vs saline. The method, then:
About 3-month-old C57/BL6 mice were intraperitoneally injected with 200 μl of saline (control) or 1% solution of respective compounds (dissolved in saline). Blood was collected 16 hr later, and the ratio of neutrophils in the whole blood cells was measured using Siemens Advia 120.

Assay [5] concerns basophils in the whole blood cells. Put plainly: ratio of basophils in whole blood cells, Siemens Advia 120 (Example 14). To be noted: 200 μl of 1% solution i.p., blood 16 hr later, vs saline. As to the method:
About 3-month-old C57/BL6 mice were intraperitoneally injected with 200 μl of saline (control) or 1% solution of respective compounds (dissolved in saline). Blood was collected 16 hr later, and the ratio of basophils in the whole blood cells was measured using Siemens Advia 120.

The test system of assay [6] is basophils in the peripheral blood. Description: number of basophils in peripheral blood, Siemens Advia 120 (Example 8). As to conditions: 200 μl of 1% solution i.p., blood 16 hr later, vs saline. The method, then: About 3-month-old C57/BL6 mice were intraperitoneally injected with 200 μl of saline (control) or 1% solution of respective compounds (dissolved in saline). Blood was collected 16 hr later, and the number of basophils in the peripheral blood was measured using Siemens Advia 120.

The test system of assay [7] is lymphocytes in the peripheral blood. Put plainly: number of lymphocytes in peripheral blood, Siemens Advia 120 (Example 9). As to conditions: 200 μl of 1% solution i.p., blood 16 hr later, vs saline. The method, then: About 3-month-old C57/BL6 mice were intraperitoneally injected with 200 μl of saline (control) or 1% solution of respective compounds (dissolved in saline). Blood was collected 16 hr later, and the number of lymphocytes in the peripheral blood was measured using Siemens Advia 120.

Assay [8] deals with lymphocytes in the whole blood cells. Put plainly: ratio of lymphocytes in whole blood cells, Siemens Advia 120 (Example 15). As to conditions: 1% solution i.p., blood 16 hr later, vs saline. The method, then:
About 3-month-old C57/BL6 mice were intraperitoneally injected with […] saline (control) or 1% solution of respective compounds (dissolved in saline). Blood was collected 16 hr later, and the ratio of lymphocytes in the whole blood cells was measured using Siemens Advia 120.

For assay [9], the system named is monocytes in the peripheral blood. Description: flow cytometry of monocytes in peripheral blood, 2MT i.p./odor, corticosterone (Example 3). As to conditions: intraperitoneal injection vs saline i.p., blood 16 hr later. As to the method:
(§1) About 3-month-old C57/BL6 mice were intraperitoneally administered with 200 μl of saline (control) or 1% 2MT solution (dissolved in saline). Blood was collected 16 hr later, and the number of various leukocytes in the peripheral blood was measured by a flow cytometry method by peroxidase staining and a two-angle laser flow cytometry method. The ratios of neutrophils and monocytes in the peripheral blood under respective conditions that were clarified by the measurement are shown.

Assay [10] concerns neutrophils in the peripheral blood. Put plainly: flow cytometry of neutrophils in peripheral blood, 2MT i.p./odor, corticosterone (Example 3). As to conditions: intraperitoneal injection vs saline i.p., blood 16 hr later. The method, then:
as §1
(In general: Flow cytometry measures light scatter and fluorescence of single cells or particles in a stream.)

In the case of `SC1=NCCS1` [2-Mercaptothiazoline], the “number of monocytes in the peripheral blood” value in assay [1] was “increase”. In addition, in [2], the “neutrophils in the peripheral blood (number)” value (“neutrophils … (number)” for short) is “increase”. Further, the “ratio of monocytes in the whole blood cells” value (“ratio of monocytes” below) in assay [3] was “increases”. In [4], the “ratio of neutrophils in the whole blood cells” value (from here on “ratio of neutrophils”) is recorded as “increases”. In assay [5], the “ratio of basophils in the whole blood cells” value (“ratio of basophils” for short) is “increases”.

As to `Cc1ccco1` [2-Methylfuran], the “ratio of basophils” value in assay [5] was “increases”. The “number of basophils in the peripheral blood” value (“number of basophils” for short) in assay [6] is listed as “increases”.

As to `C1COCCN1` [Morpholine], the “number of monocytes in the peripheral blood” value in [1] is given as “increase”. The “number of lymphocytes in the peripheral blood” value (“number of lymphocytes” for short) in assay [7] is “increases”. In addition, the “neutrophils … (number)” value in assay [2] is “increase”.

For `CC(=O)c1cccc(C)n1` [2-Acetyl-6-methylpyridine], in assay [7], the “number of lymphocytes” value is “increases”.

As to `CC(=O)c1ncc(C)nc1C` [2-Acetyl-3,5-dimethy pyrazine], in [1], the “number of monocytes in the peripheral blood” value is given as “increase”. The “number of basophils” value in assay [6] is listed as “increases”.

Regarding `Cc1cccnc1C` [2,3-dimethylpyridine], the “number of lymphocytes” value in assay [7] was “increases”.

For (−)-Ambroxide, the “number of lymphocytes” value in assay [7] was “increases”.

Consider `Cc1nccnc1SCc1ccco1` [2-Furfurylthio-3-methylpyrazine], for which the “number of monocytes in the peripheral blood” value in [1] is listed as “increase”. In addition, in assay [2], the “neutrophils … (number)” value is recorded as “increase”. Also, in assay [3], the “ratio of monocytes” value is listed as “increases”. Also, the “ratio of neutrophils” value in [4] is “increases”.

Turning to `CCC1CSC(C)=N1` (stereo not drawn) [4-Ethyl-2-methyl-thiazoline], in assay [8], the “ratio of lymphocytes in the whole blood cells” value (shortened to “ratio of lymphocytes”) was “increases”. Further, in [2], the “neutrophils … (number)” value is given as “increase”. Further, the “ratio of monocytes” value in [3] is recorded as “increases”. The “ratio of neutrophils” value in assay [4] is “increases”.

Consider `Cc1cccc(C)n1` [2,6-Lutidine], for which the “ratio of basophils” value in assay [5] is listed as “increases”. Moreover, the “number of basophils” value in assay [6] is “increases”.

On to `Cc1ccc(C)o1` [2,5-Dimethylfuran], for which, in [6], the “number of basophils” value is on record as “increases”.

Take `Cc1cncs1` [5-Methylthiazole]: the “ratio of lymphocytes” value in assay [8] is listed as “increases”. Also, the “neutrophils … (number)” value in assay [2] was “increase”. The “ratio of monocytes” value in assay [3] is listed as “increases”. Also, the “ratio of neutrophils” value in assay [4] is on record as “increases”.

As for `Cc1oc2ccccc2c1C` [2,3-Dimethylbenzofuran], the “ratio of neutrophils” value in assay [4] is listed as “increases”. In addition, in assay [5], the “ratio of basophils” value is “increases”. For the same compound, the “number of basophils” value in assay [6] was “increases”.

With `O=Cc1cncs1` [5-Formylthiazole], the “ratio of lymphocytes” value in assay [8] is listed as “increases”.

As for `CC(=O)c1ccc(C)o1` [2-Acetyl-5-methylfuran], the “ratio of neutrophils” value in assay [4] is given as “increases”. In addition, the “ratio of basophils” value in assay [5] is “increases”. Moreover, the “number of basophils” value in assay [6] is “increases”.

For the compound `CC1OCCC1S` (stereo not drawn) [2-Methyl-3-tetrahydrofuranthiol], in assay [1], the “number of monocytes in the peripheral blood” value was “increase”. Besides, the “ratio of monocytes” value in assay [3] is “increases”. Besides, in assay [6], the “number of basophils” value is “increases”.

As for `O=S1(=O)CCN(c2ccccc2)CC1` [4-Phenyl-thiomorpholine-1,1-dioxide], the “number of monocytes in the peripheral blood” value in assay [1] is recorded as “increase”. Further, in assay [7], the “number of lymphocytes” value is “increases”.

On to `C[C@]12C[C@H](O)[C@H]3[C@@H](CCC4=CC(=O)CC[C@@]43C)[C@@H]1CC[C@@H]2C(=O)CO` [Corticosterone, reference compound], for which the number of monocytes result in [9] was “did not increase significantly”. In [10], the number of neutrophils entry was “decreased”.

Turning to `COc1ccc2ncccc2c1` [6-Methoxyquinoline], the “number of monocytes in the peripheral blood” value in assay [1] is reported as “increase”. In assay [2], the “neutrophils … (number)” value is “increase”. Besides, the “ratio of monocytes” value in assay [3] is “increases”. Also, in assay [4], the “ratio of neutrophils” value is “increases”. Also, the “ratio of basophils” value in assay [5] was “increases”. Further, the “number of basophils” value in [6] is reported as “increases”.

Turning to `Cc1ccc(C)s1` [2,5-Dimethylthiophene], the “number of lymphocytes” value in assay [7] is recorded as “increases”. The “neutrophils … (number)” value in assay [2] is “increase”. In addition, the “number of basophils” value in [6] is on record as “increases”.

In the case of `CC(=O)c1ccncc1` [4-Acetylpyridine], the “number of monocytes in the peripheral blood” value in [1] is “increase”. Moreover, in [2], the “neutrophils … (number)” value is on record as “increase”. The “ratio of monocytes” value in [3] is “increases”. Moreover, the “ratio of neutrophils” value in assay [4] is on record as “increases”.

For the compound `CC1CCC(C)O1` (stereo not drawn) [2,5-Dimethyltetrahydrofuran], the “ratio of monocytes” value in assay [3] is given as “increases”. In addition, the “ratio of basophils” value in [5] is given as “increases”. Further, the “number of basophils” value in assay [6] is recorded as “increases”.
